Assay [1] relates to LTB4 production in fresh human whole blood. In words: FLAP Whole Blood Assay (Test B), inhibition of LTB4 production. The following applies: method B: compound incubated with human whole blood at 37° C. for 4 h, then calcium ionophore A23187; LTB4 by EIA; read-out: IC50 nM (method B). The assay is classed as cell-based. The procedure: FLAP Whole Blood Assay (Test B)
Compounds were tested for the inhibition of LTB4 production in fresh human whole blood obtained by venapuncture using heparin to prevent clotting. 1.5 μL compounds or DMSO carrier were dispensed into the wells of a 96-well deep-well plate in 3-fold dilution series. 500 μL hepamised whole blood was then added followed by incubation at 37° C. for 30 min (method A) or 4 h (method B). 100 μL blood was subsequently transferred in triplicate to pre-dispensed 0.5 μL 2 mM calcium ionophore (calcimycin; A23187) in a second 96-well plate. Following incubation at 37° C. for 20 min, the assays were stopped by adding 10 μL of stop solution (100 mM EGTA, pH 7.4) and the plate was transferred to ice. The plate was centrifuged at 3000 rpm at 4° C. for 10 min and […] was transferred to a fresh 96 well plate containing 90 μL pre-dispensed EIA assay buffer (0.1 M phosphate buffer+0.1% BSA). LTB4 was then measured using reagents from a commercial EIA (Cayman Chemicals). LTB4 production was defined as the LTB4 level in the presence of a given concentration of test compound minus the LTB4 level in the presence of 50 nM 5-[[4-[(2S,4R)-4-hydroxy-2-methyl-tetrahydropyran-4-yl]-2-thienyl]sulfanyl]-1-methyl-indolin-2-one. (Preparation of 5-[[4-[(2S,4R)-4-hydroxy-2-methyl-tetrahydropyran-4-yl]-2-thienyl]sulfanyl]-1-methyl-indolin-2-one was described in Org. Process Res. Dev., 2005, 9, 555-569 or EP623614 B1). Inhibition of LTB4 production was defined as the LTB4 level in the presence of a given concentration of test compound expressed as a % of the LTB4 level in the presence of DMSO. IC50 values were determined by plotting % inhibition versus log compound concentration and using a one site dose response model.

Assay [2] concerns the target FLAP (human ALOX5AP expressed in COS-7 cell membranes) (Homo sapiens (Human), UniProt P20292). As to the kind of experiment: FLAP Binding Assay (Test A), competition binding with 3H-MK591 as tracer. Conditions: competition with 3H-MK591 (2 nM), membranes from COS-7 cells expressing human ALOX5AP, 60 min at rt. The procedure:
FLAP Binding Assay (Test A) Compounds were tested in a competition binding assay using ^3H-MK591 as tracer. […] Med. Chem. […] A 100,000×g pellet from COS-7 cells stably transfected with a plasmid expressing human ALOX5AP was the source of FLAP. […] Following filtration, filter plates were dried 12 h at RT (or 50° C. for 1 hour). 50 μL scintillant was then added, the filterplates were sealed and radioactivity was measured in a microbeta counter. Specific binding was defined as total binding minus non-specific binding. Total binding was defined as ^3H-MK591 bound to membranes in the absence of competitor, non-specific binding was defined as ^3H-MK591 in the presence of 0.1 mM MK-591. IC50 values were determined by plotting % inhibition versus log compound concentration and using a one site dose response model.

The values that follow come from US10183947B2, “Pyrazole derivatives useful as 5-lipoxygenase activating protein (FLAP) inhibitors” (ASTRAZENECA AB, priority 2015, dated 2019).

FLAP (human ALOX5AP expressed in COS-7 cell membranes), sequence (P20292 whole entry): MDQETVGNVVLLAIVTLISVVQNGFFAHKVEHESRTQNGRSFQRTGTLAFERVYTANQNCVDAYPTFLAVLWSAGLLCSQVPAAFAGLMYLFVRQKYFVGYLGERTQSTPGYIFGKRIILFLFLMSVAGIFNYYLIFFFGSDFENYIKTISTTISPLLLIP

With `NC(=O)c1[nH]ncc1NC(=O)[C@@H]1CCCC[C@H]1C(=O)c1ccc(-c2ccn[nH]2)cc1` [Example 23, 4-[({(1R,2R)-2-[4-(1H-Pyrazol-5-yl)benzoyl]cyclohexyl}carbonyl)amino]-1H-pyrazole-5-carboxamide], the IC50 in assay [1] came to 130 nM; in assay [2], 35 nM.
The like results for `O=C1NCCn2ncc(NC(=O)[C@@H]3CCCC[C@H]3C(=O)c3ccc(-c4ccn[nH]4)cc3)c21` [Example 24, (1R,2R)—N-(4-Oxo-4,5,6,7-tetrahydropyrazolo[1,5-a]pyrazin-3-yl)-2-[4-(1H-pyrazol-5-yl)benzoyl]cyclohexanecarboxamide] were, in that order, 18 nM and 8.1 nM.
Turning to `CNS(=O)(=O)c1c(NC(=O)[C@@H]2CCCC[C@H]2C(=O)c2ccc(-c3cc(C)n[nH]3)cc2)cnn1C` [Example 25, (1R,2R)—N-[1-Methyl-5-(methylsulfamoyl)-1H-pyrazol-4-yl]-2-[4-(3-methyl-1H-pyrazol-5-yl)benzoyl]cyclohexanecarboxamide], the IC50 in assay [1] amounted to 210 nM; in assay [2] it was 25 nM.
As for `Cn1cc(NC(=O)[C@@H]2CCCC[C@H]2C(=O)c2ccc(-c3ccn[nH]3)cc2)c(S(N)(=O)=O)n1` [Example 26, (1R,2R)—N-(1-Methyl-3-sulfamoyl-1H-pyrazol-4-yl)-2-[4-(1H-pyrazol-5-yl)benzoyl]cyclohexanecarboxamide], the half-maximal inhibitory concentration (IC50) in assay [1] came out at 250 nM; in assay [2] it was 290 nM.
On to `CN(C)S(=O)(=O)c1c(NC(=O)[C@@H]2CCCC[C@H]2C(=O)c2ccc(-c3ccn[nH]3)cc2)cnn1C` [Example 27, (1R,2R)—N-[5-(Dimethylsulfamoyl)-1-methyl-1H-pyrazol-4-yl]-2-[4-(1H-pyrazol-5-yl)benzoyl]cyclohexanecarboxamide], for which the 50% inhibitory concentration (IC50) in assay [1] was found to be 55 nM; in assay [2], 65 nM.
Regarding `Cc1cc(-c2ccc(C(=O)[C@@H]3CCCC[C@H]3C(=O)Nc3c(C)nn4c3C(=O)NCC4)cc2)n[nH]1` [Example 28, (1R,2R)—N-(2-Methyl-4-oxo-4,5,6,7-tetrahydropyrazolo[1,5-a]pyrazin-3-yl)-2-[4-(5-methyl-1H-pyrazol-3-yl)benzoyl]cyclohexanecarboxamide], the IC50 in assay [1] is 380 nM; in assay [2], 3.9 nM.
The like results for `Cc1nn2c(c1NC(=O)[C@@H]1CCCC[C@H]1C(=O)c1ccc(-c3cc[nH]n3)cc1)C(=O)NCC2` [Example 29, (1R,2R)—N-(2-Methyl-4-oxo-4,5,6,7-tetrahydropyrazolo[1,5-a]pyrazin-3-yl)-2-[4-(1H-pyrazol-5-yl)benzoyl]cyclohexanecarboxamide] were, in that order, 330 nM and 4.8 nM.
On to `O=C(Nc1cn[nH]c1C(F)F)[C@@H]1CCCC[C@H]1C(=O)c1ccc(-c2cc[nH]n2)cc1` [Example 30, (1R,2R)—N-[5-(Difluoromethyl)-1H-pyrazol-4-yl]-2-[4-(1H-pyrazol-3-yl)benzoyl]cyclohexanecarboxamide], for which the half-inhibitory concentration (IC50) in assay [1] worked out at 50 nM; in assay [2] it was 12 nM.
The like results for `Cc1cc(-c2ccc(C(=O)[C@@H]3CCCC[C@H]3C(=O)Nc3nnco3)cc2)[nH]n1` [Example 43, (1R,2R)-2-[4-(3-Methyl-1H-pyrazol-5-yl)benzoyl]-N-(1,3,4-oxadiazol-2-yl)cyclohexanecarboxamide] were, in that order, 904 nM and 140 nM.
